The text below walks through data of patent US12144788B2, “Visual cycle modulators” (CASE WESTERN RESERVE UNIVERSITY, priority 2017, dated 2024).

The structures appear in SMILES notation.

In one series the test system is C57BL/6J mice. Put plainly: in vivo dark-adapted ERG recordings after bleach. Particulars: gavage 1 day before bleach, doses indicated effective by retinoid analysis. More on the design: species or system mouse. How it is done: FIG. 5 illustrates ERG responses of mice treated with visual cycle modulators. Oral gavage was used to administer vehicle or MB compounds to mice 24 h prior to 10 min light exposure followed by 6 h of dark adaptation. Dark-adapted ERGs were obtained to strobe flash stimuli.
C57BL/6J mice aged 1.5-4 months were anesthetized with ketamine (80 mg/kg) and xylazine (16 mg/kg) after overnight dark adaptation. Mydriatic eye drops were used to dilate the pupil (1% tropicamide; 2.5% phenylephrine). ERGs were obtained using an active electrode that contacted the corneal surface; needle electrodes placed in the cheek and tail provided reference and ground leads, respectively. Strobe stimuli were presented to the dark-adapted eye in an LKC (Gaithersburg, MD) ganzfeld. Responses were amplified, averaged and stored using an LKC UTAS E-3000 signal averaging system.
Baseline dark-adapted ERGs were recorded from each mouse. After a minimum 1 day interval, MB compounds or vehicle were administered by gavage at 9 a.m. The next morning, mydriatic eye drops were used to dilate the pupils and mice were then exposed to a 10-minute 10,000 lux bleach. Mice were dark-adapted for 6 hours, after which ERGs were recorded.
We next examined the impact of these compounds on retinal function, measured using the electroretinogram (ERG). FIG. 5 presents a family of dark-adapted ERGs measured 6 hours after mice underwent a 95% bleach presented 1 day following gavage administration of vehicle or MB compound molecules at doses indicated to be effective by retinoid analysis. […] In comparison, mice administered with MB compound molecules had had reduced amplitude ERGs indicative of incomplete bleaching recovery. […] In response to higher luminance stimuli, reproducible responses were observed. That these reflect dark-adapted cone-mediated responses is supported by their similarity to responses obtained from transducin KO mice which lack rod-mediated activity, while retaining normal cone-mediated responses, and have a very similar ERG phenotype.

In the next series the test system is Abca4−/−Rdh8−/− mice. Put plainly: protection against light-induced retinal degeneration (OCT, ONL thickness). Format: in vivo, mouse. How it is done:
FIGS. 7(A-B) illustrate protective effects of MB compounds against light-induced retinal degeneration in Abca4^−/−Rdh8^−/− mice. Drugs were administrated at the indicated doses to 4-6 week-old Abca4^−/−Rdh8^−/− mice (weight ˜20 g) by oral gavage. After a 24 h dark adaptation, mice were exposed to 10,000 lux light for 30 min and then returned to a dark environment for 3 days. (A) Representative OCT images of mice treated with MB compounds. A dramatic decrease in the ONL indicates advanced retinal degeneration. The black scale beside the DMSO image represents 50 μm. (B) Retinal protective effects exerted by MB compounds as quantified by average ONL thickness. Only non-scattering ONL layers were measured. For images in which the ONL layer boundary was obscured due to light scattering, the ONL length was recorded as 0 μm. Error bars represent standard deviations; n=3-5 for each group.
Abca4^−/−Rdh8^−/− mice on a C57BL/6J background were generated as previously described. Male and female WT mice with C57BL/6J backgrounds were obtained from The Jackson Laboratory. Abca4^−/−Rdh8^−/− mice used in this study were homozygous for the Leu450 allele of Rpe65 as determined by a genotyping protocol published previously and free of Crb1/rd8 and rd/rd mutations Animals were housed either in the animal facility at the Case Western Reserve University School of Medicine, where they received a standard chow diet (LabDiet 5053) and were maintained under a 12-h light (˜300 lux) and 12-h dark cycle or at the Cole Eye Institute animal facility where they were. Mice were dark adapted overnight prior to all experiments. A cohort of Rdh8^−/−Abca4^−/− or C57BL/6J mice was used when they reached the age of 1 to 2 months, and both sexes were used evenly. All tested primary amines were suspended in 100 μl soybean oil with less than 10% (v/v) DMSO and were administered by oral gavage with a 22-gauge feeding needle. Experimental manipulations in the dark were done under dim red light transmitted through a Kodak No. 1 Safelight Filter (transmittance >560 nm).
After dark adaptation for 24 h, Abca4^−/−Rdh8^−/− mice with pupils dilated by 1% tropicamide were exposed to fluorescent light (10,000 lux; 150 W spiral lamp; Commercial Electric) for 30 min in a white paper bucket (Papersmith) and then kept in the dark for an additional 3 days. Development of retinal degeneration was then determined by ultra-high-resolution spectral domain OCT (SD-OCT; Bioptigen) and ERG as previously described.
To examine the ability of […] cause retinal damage in the absence of treatment with protective agents. Three days later retinas were imaged in vivo by optical coherence tomography, with preservation of outer nuclear layer thickness and light scattering properties serving as markers for retinal health. MB-001, which is capable of preventing light-induced retinal degeneration through both direct RPE65 inhibition as well as retinal sequestration served as a positive control for these experiments.

The target of the next series is RPE65 (Bos taurus, UniProt Q28175). Put plainly: in vitro retinoid isomerase activity assay with bovine RPE microsomes. Particulars: up to concentrations of 50 μM.
RPE65, sequence (Q28175 whole entry): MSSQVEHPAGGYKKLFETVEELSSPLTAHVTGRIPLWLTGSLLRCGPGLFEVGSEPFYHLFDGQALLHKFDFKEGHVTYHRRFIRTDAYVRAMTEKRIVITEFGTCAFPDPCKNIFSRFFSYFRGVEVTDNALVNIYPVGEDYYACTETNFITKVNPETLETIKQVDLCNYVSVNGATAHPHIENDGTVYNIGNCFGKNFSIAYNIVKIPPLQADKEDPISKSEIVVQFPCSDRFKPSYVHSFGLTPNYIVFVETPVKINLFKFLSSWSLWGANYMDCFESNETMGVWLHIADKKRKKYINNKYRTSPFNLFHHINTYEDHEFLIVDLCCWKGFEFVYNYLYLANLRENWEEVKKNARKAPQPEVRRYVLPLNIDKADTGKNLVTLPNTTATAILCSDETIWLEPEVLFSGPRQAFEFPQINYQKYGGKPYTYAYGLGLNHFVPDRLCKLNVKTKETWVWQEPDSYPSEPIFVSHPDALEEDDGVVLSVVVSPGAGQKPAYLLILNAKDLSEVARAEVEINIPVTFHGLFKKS
Series [1] in a line: identification of atRAL Schiff base conjugates with MB compounds in mouse eyes. In kind it is in vivo. The following applies: Abca4−/−Rdh8−/− mice, 50 mg/kg oral gavage, bright light exposure 10 min; mass spectrometry versus standards. On the procedure: FIGS. 6(A-B) illustrate identification of retinal Schiff base conjugates in Abca4^−/− Rdh8^−/− mice treated with MB-005 and MB-006. Following drug administration, mice were exposed to intense light for 10 min. After a 30 min recovery under darkness, animals were sacrificed and retinoids were extracted from the eyes. (A, B) Shown in the top panels are selective ion chromatograms for MB-005-retinal conjugates (A, at m/z=572.6) and MB-006-retinal conjugates (B, at m/z=588.6). Panels on the bottom show the mass spectra of the peaks coinciding with the retention times of their authentic standards. The insets display the MS/MS fragmentation patterns of the two imines, which were identical to the corresponding standards.
MB-005 or MB-006 (50 mg/kg) were administrated by oral gavage to Abca4^−/−Rdh8^−/− mice 24 h prior to light exposure. After exposure to fluorescent light for 10 min, animals were euthanized and their eyes were collected and homogenized in acetonitrile. After centrifugation, the supernatant was concentrated to 400 μl under vacuum. […]
With the effects of these compounds on visual cycle function established we next sought to examine their ability to form retinal-Schiff base conjugates in vivo. […] Retinoids were extracted and analyzed by mass spectrometry. […]

Procedure for RPE65: Primary amines were pre-incubated with bovine RPE microsomes at room temperature for 5 min, then all-trans-retinol was added and the mixtures were incubated at 37° C. All incubation mixtures were quenched by the addition of methanol after 1 h of incubation. Inhibition of RPE65 enzymatic activity was measured as a decline in 11-cis-retinol production.
Synthesized primary amine (1 μl in DMF, with the final concentration ranging between 50 nM and 50 μM) was added to 10 mM Bis-Tris propane/HCl buffer, pH 7.4, containing 150 μg RPE microsomes, 1% BSA, 1 mM disodium pyrophosphate, and 20 μM aporetinaldehyde-binding protein 1 (CRALBP). The resulting mixture was pre-incubated at room temperature for 5 min. Then, all-trans-retinol (1 μl in DMF, at a final concentration of 20 μM) was added. The resulting mixture was incubated at 37° C. for 1 h. The reaction was quenched by adding 300 μl methanol, and products were extracted with 300 μl hexanes. Production of 11-cis-retinol was quantified by normal-phase HPLC with 10% (v/v) EtOAc in hexanes as the eluent at a flow rate of 1.4 ml/min. Retinoids were detected by monitoring their absorbance at 325 nm and quantified based on a standard curve representing the relationship between the amount of synthetic 11-cis-retinol standard and the area under the corresponding chromatographic peak.
To test these structural predictions, we examined the inhibitory activity of the compounds against RPE65 activity in an in vitro retinoid isomerase assay using bovine RPE microsomes as the enzyme source.

Consider `CC(C)c1cc(OCC2CCCCC2)cc(C(O)CCN)c1` (stereo not drawn) [MB-005, 3-Amino-1-(3-(cyclohexylmethoxy)-5-isopropylphenyl)propan-1-ol], for which the “dark-adapted ERG 6 hours after 95% bleach” value in the series with C57BL/6J mice is “less incomplete recovery”. The “protective effect compared to the MB-001 control” value is approximately 50% in the series on Abca4−/−Rdh8−/− mice (0.5 mg/mouse oral gavage 24 h before light) and approximately 80% in the series on Abca4−/−Rdh8−/− mice (doubling of 0.5 mg/mouse (1 mg/mouse), oral gavage 24 h before light). In addition, the “protection against light-induced retinal degeneration” value with Abca4−/−Rdh8−/− mice (2 mg/mouse oral gavage 24 h before light) is recorded as “fully protected”. Further, on RPE65, the “inhibition against retinoid isomerization” value was “minimal or no inhibition”. The “retinal Schiff base adducts in eye extracts” value in series [1] is given as “contained compounds matching the expected molecular weight of the respective Schiff base adducts”.
